Experimental data: US20130096105A1, “ArylSulfonamide Based Matrix Metalloprotease Inhibitors” (NOVARTIS AG, priority 2008, published 2013)

How the values were obtained:
Gelatinase (MMP-2) = biological target: T1, Gelatinase (MMP-2) (Homo sapiens, UniProt P08253); assay: Gelatinase (MMP-2) inhibitory activity, fluorogenic peptide substrate cleavage; type: biochemical; conditions: read-out: MMP02 IC50
T1 sequence (P08253 110-660): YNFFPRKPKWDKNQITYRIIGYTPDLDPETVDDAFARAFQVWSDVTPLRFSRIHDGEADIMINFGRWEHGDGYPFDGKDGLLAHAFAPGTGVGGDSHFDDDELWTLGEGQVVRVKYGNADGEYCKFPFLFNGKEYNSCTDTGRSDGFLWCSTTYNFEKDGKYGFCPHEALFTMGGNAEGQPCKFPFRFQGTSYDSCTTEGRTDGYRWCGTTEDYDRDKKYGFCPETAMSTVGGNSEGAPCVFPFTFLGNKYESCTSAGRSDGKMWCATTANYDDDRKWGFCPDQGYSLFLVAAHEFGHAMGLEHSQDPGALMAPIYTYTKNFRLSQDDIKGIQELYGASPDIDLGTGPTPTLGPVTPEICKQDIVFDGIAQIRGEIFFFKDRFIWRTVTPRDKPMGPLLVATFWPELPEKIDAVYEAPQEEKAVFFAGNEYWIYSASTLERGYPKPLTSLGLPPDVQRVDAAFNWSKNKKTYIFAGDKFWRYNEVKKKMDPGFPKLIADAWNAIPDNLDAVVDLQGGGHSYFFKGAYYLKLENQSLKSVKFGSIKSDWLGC
Description: (§1) Gelatinase (MMP-2) inhibitory activities can be determined as follows: Stock solutions of substrate (MCA-Lys-Pro-Leu-Gly-Leu-Dpa-Ala-Arg-NH2) are prepared in DMSO at a concentration of 1.4 mM. Stock solutions of inhibitors (0.03 μM-3 mM) are also prepared in DMSO. The inhibitors are diluted into the assay solutions, and the controls use an equal volume of DMSO so that the final DMSO concentration from the inhibitor and substrate dilutions in all assays is 1.0%. Assays are performed in an assay buffer (100 mM sodium chloride, 10 μM ZnCl. Sub 2, 10 mM CaCl2, 100 mM Tris-Cl pH7.5, 0.05% Brij-35), containing 1.0% DMSO from the substrate and inhibitor additions. The substrate concentration used in the assays is 5 μM. The assays are carried out at 20-25° C. The fluorescence changes, as a result of substrate cleavage, are monitored using an excitation wavelength of 325 nm and an emission wavelength of 405 nm. The reaction mixtures are added in duplicate into appropriate wells of a 384-well assay plate. The reaction mixtures are preincubated with the inhibitors for 60 minutes The reactions are started by the addition of MMP substrate, and the fluorescence intensity changes are measured after 60 minutes The apparent enzyme activity in the presence of an inhibitor is then compared with that in the absence of any inhibitor to determine the inhibition effect of the inhibitor. These techniques are within the knowledge of one skilled in the art. The inhibition results are expressed as the inhibitor concentrations required to effect 50% inhibition (IC50) of the enzyme activity, as compared with the control (non-inhibited) reactions.

Collagenase-3 (MMP-13) = Collagenase-3 (MMP-13) (Homo sapiens, UniProt P45452); assay: Collagenase-3 (MMP-13) inhibitory activity, fluorogenic peptide substrate cleavage; type: biochemical; conditions: read-out: MMP13 IC50
Description: as §1
Collagenase-3 (MMP-13) inhibitory activity is determined as described above. Recombinant pro-collagenase-3 is activated with 1 mM APMA, and stored in the assay buffer after extensive dialysis in the assay buffer.

Molecule | IC50 (Gelatinase (MMP-2)) [µM] | IC50 (Collagenase-3 (MMP-13)) [µM]
2-Chloro-5-(3-hydroxy-4-methoxy-benzoyl)-benzenesulfonamide [Example 56] | > 30 | 26.7
2-Chloro-5-(4-cyclopropyl-benzoyl)-benzenesulfonamide [Example 27] | 7.46 | 9.64
2-Chloro-5-(4-pyridin-4-yl-benzoyl)-benzenesulfonamide [Example 42] | 0.51 | 1.5
2-Chloro-5-(4-thiophen-2-yl-benzoyl)-benzenesulfonamide [Example 39] | 13.3 | 9.06
COc1ccc(C(=O)c2ccc(F)c(S(N)(=O)=O)c2)cc1 [Example 2, 2-Fluoro-5-(4-methoxy-benzoyl)-benzenesulfonamide] | 2.41 | 1.59
COc1ccc(C(=O)c2ccc([N+](=O)[O-])c(S(N)(=O)=O)c2)cc1 [Example 5, 5-(4-Methoxy-benzoyl)-2-nitro-benzenesulfonamide] | 1.06 | 1.39
COc1ccc(C(=O)c2ccc(C)c(S(N)(=O)=O)c2)cc1 [Example 6, 5-(4-Methoxy-benzoyl)-2-methyl-benzenesulfonamide] | 2.78 | 4.51
COc1ccc(C(=O)c2ccc(SC)c(S(N)(=O)=O)c2)cc1 [Example 7, 5-(4-Methoxy-benzoyl)-2-methylsulfanyl-benzenesulfonamide] | 2.36 | 3.72
COc1ccc(C(=O)c2ccc(S(C)(=O)=O)c(S(N)(=O)=O)c2)cc1 [Example 9, 2-Methanesulfonyl-5-(4-methoxy-benzoyl)-benzenesulfonamide] | 2.93 | 11.3
COc1ccc(C(=O)c2ccc(Cl)c(S(=O)(=O)NCCc3ccccc3)c2)cc1 [Example 12, 2-Chloro-5-(4-methoxy-benzoyl)-N-phenethyl-benzenesulfonamide] | 9.13 | 3.04
COc1ccc(C(=O)c2ccc(Cl)c(S(=O)(=O)NCCc3ccc(F)cc3)c2)cc1 [Example 13, 2-Chloro-N-[2-(4-fluoro-phenyl)-ethyl]-5(4-methoxy-benzoyl)-benzenesulfonamide] | 8.8 | 6.9
NS(=O)(=O)c1cccc(C(=O)c2ccc3c(-c4ccnc(CCCN5CCOCC5)c4)c[nH]c3c2)c1 [Example 14, 3-{3-[2-(3-Morpholin-4-yl-propyl)-pyridin-4-yl]-1H-indole-6-carbonyl}-benzenesulfonamide] | 0.8 | 0.01
CC(C)COc1ccc(C(=O)c2ccc(Cl)c(S(N)(=O)=O)c2)cc1 [Example 17, 2-Chloro-5-(4-isobutoxy-benzoyl)-benzenesulfonamide] | 2.3 | 3.71
CC(C)CCOc1ccc(C(=O)c2ccc(Cl)c(S(N)(=O)=O)c2)cc1 [Example 18, 2-Chloro-5-[4-(3-methyl-butoxy)-benzoyl]-benzenesulfonamide] | 0.7 | 0.6
CCCCCOc1ccc(C(=O)c2ccc(Cl)c(S(N)(=O)=O)c2)cc1 [Example 20, 2-Chloro-5-(4-pentyloxy-benzoyl)-benzenesulfonamide] | 11 | 13.6
NS(=O)(=O)c1cc(C(=O)c2ccc(Br)cc2)ccc1Cl [Example 22, 5-(4-Bromo-benzoyl)-2-chloro-benzenesulfonamide] | 14 | 2.05
NS(=O)(=O)c1cc(C(=O)c2ccc(OC(F)(F)F)cc2)ccc1Cl [Example 25, 2-Chloro-5-(4-trifluoromethoxy-benzoyl)-benzenesulfonamide] | 2.17 | 5.3
CC(C)(C)c1ccc(C(=O)c2ccc(Cl)c(S(N)(=O)=O)c2)cc1 [Example 26, 5-(4-tert-Butyl-benzoyl)-2-chloro-benzenesulfonamide] | 17.2 | 10.5
C[Si](C)(C)C#Cc1ccc(C(=O)c2ccc(Cl)c(S(N)(=O)=O)c2)cc1 [Example 30, 2-Chloro-5-(4-trimethyl-silanylethynyl-benzoyl)-benzenesulfonamide] | 1.23 | 1.69
NS(=O)(=O)c1cc(C(=O)c2ccc(C#Cc3ccccc3)cc2)ccc1Cl [Example 32, 2-Chloro-5-(4-phenylethynyl-benzoyl)-benzenesulfonamide] | 8.3 | 10
CCCNC(=O)c1ccc(C(=O)c2ccc(Cl)c(S(N)(=O)=O)c2)cc1 [Example 33, 4-(4-Chloro-3-sulfamoyl-benzoyl)-N-propyl-benzamide] | > 30 | 2.59
NS(=O)(=O)c1cc(C(=O)c2ccc3c(CCC4CCCC4)n[nH]c3c2)ccc1Cl [Example 112, 2-Chloro-5-[3-(2-cyclopentyl-ethyl)-1H-indazole-6-carbonyl]-benzenesulfonamide] | – | 0.129
NS(=O)(=O)c1cc(C(=O)c2ccc3c(-c4ccsc4)c[nH]c3c2)ccc1Cl [Example 127, 2-Chloro-5-(3-thiophen-3-yl-1H-indole-6-carbonyl)-benzenesulfonamide] | – | 1.6

Results, then the molecule that gave them:

IC50 (Gelatinase (MMP-2)) [µM] | IC50 (Collagenase-3 (MMP-13)) [µM] | Molecule
4.68 | 5.73 | COc1ccc(C(=O)c2cc(F)c(F)c(S(N)(=O)=O)c2)cc1 [Example 4, 2,3-Difluoro-5-(4-methoxy-benzoyl)-benzenesulfonamide]
4.48 | 10.7 | COc1ccc(C(=O)c2ccc([S+](C)[O-])c(S(N)(=O)=O)c2)cc1 (stereo not drawn) [Example 8, 2-Methanesulfinyl-5-(4-methoxy-benzoyl)-benzenesulfonamide]
3.4 | 0.03 | Cc1cc(-c2c[nH]c3cc(C(=O)c4cccc(S(N)(=O)=O)c4)ccc23)ccn1 [Example 10, 3-[3-(2-Methyl-pyridin-4-yl)-1H-indole-6-carbonyl]-benzenesulfonamide]
3.95 | 0.075 | COCCCc1cc(-c2c[nH]c3cc(C(=O)c4cccc(S(N)(=O)=O)c4)ccc23)ccn1 [Example 11, 3-{3-[2-(3-Methoxy-propyl)-pyridin-4-yl]-1H-indole-6-carbonyl}-benzenesulfonamide]
5.16 | 10 | NS(=O)(=O)c1cc(C(=O)c2ccc(O)cc2)ccc1Cl [Example 15, 2-Chloro-5-(4-hydroxy-benzoyl)-benzenesulfonamide]
1.58 | 1.22 | NS(=O)(=O)c1cc(C(=O)c2ccc(OCCCc3ccccc3)cc2)ccc1Cl [Example 19, 2-Chloro-5-[4-(3-phenyl-propoxy)-benzoyl]-benzenesulfonamide]
4.73 | 0.86 | CCCCCCOc1ccc(C(=O)c2ccc(Cl)c(S(N)(=O)=O)c2)cc1 [Example 21, 2-Chloro-5-(4-hexyloxy-benzoyl)-benzenesulfonamide]
4.15 | 0.95 | NS(=O)(=O)c1cc(C(=O)c2ccc(Br)cc2)ccc1Cl [Example 23, 5-(4-Bromo-benzoyl)-2-chloro-benzenesulfonamide]
9.16 | 2.1 | Cc1cccc(C(=O)c2ccc(Cl)c(S(N)(=O)=O)c2)c1 [Example 24, 2-Chloro-5-(3-methyl-benzoyl)-benzenesulfonamide]
4.26 | 4.49 | NS(=O)(=O)c1cc(C(=O)c2ccc(C3CCCC3)cc2)ccc1Cl [Example 28, 2-Chloro-5-(4-cyclopentyl-benzoyl)-benzenesulfonamide]
13.3 | 11.3 | NS(=O)(=O)c1cc(C(=O)c2ccc(C3CCCCC3)cc2)ccc1Cl [Example 29, 2-Chloro-5-(4-cyclohexyl-benzoyl)-benzenesulfonamide]
2.51 | 4.71 | NS(=O)(=O)c1cc(C(=O)c2ccc(C(=O)Nc3ccccc3)cc2)ccc1Cl [Example 34, 4-(4-Chloro-3-sulfamoyl-benzoyl)-N-phenyl-benzamide]
> 30 | – | CCc1nn(Cc2ccccc2)c2cc(C(=O)c3ccc(Cl)c(S(N)(=O)=O)c3)ccc12 [Example 111, 5-(1-Benzyl-3-ethyl-1H-indazole-6-carbonyl)-2-chloro-benzenesulfonamide]
